Data reported in a melting point compilation (Tetko et al.; mined from patent text by program, amines drawn as free bases though some values may be those of a salt).

SMILES	melting point [°C]
Nc1cc(N2CC(c3ccccc3)OC2=O)ccn1 (stereo unspecified)	155 to 156
CCCCn1cnnc1S	67 to 69
Cc1ccc(C(=O)CC(=O)C2CC2)c(S(C)(=O)=O)c1	129 to 131
COc1ccc(C(C)=O)cc1C(F)(F)F	56 to 57
N#Cc1cc(-c2nc3cncnc3[nH]2)ccc1Oc1ccc(F)cc1	> 250
O=S(=O)(Nc1ccc2c(OCc3nc(-c4ccc(F)cc4)sc3Br)cccc2c1)C(F)(F)F	139 to 140
Cc1cc(C)cc(-c2nc(NC(=O)c3cccnc3)sc2-c2ccncc2)c1	267 to 270
Cn1c(=O)c2c(Br)cccc2n2cnc(-c3nc(C4CC4)no3)c12	246 to 247
CSc1noc(-c2ccc(OCCCc3ccccc3)cc2)c1C#N	99 to 100
Cc1cccc(-c2nscc2C(=O)O)c1	144 to 146
CCCc1nn(C)c2c(=O)[nH]c(Cc3ccc(NC(=O)/C=C/OCC)cc3)nc12	241 to 243
O=[N+]([O-])c1ccc(Cl)c(C=NNc2c(Cl)cc(Cl)cc2Cl)c1	113 to 116
CCCCOC(=O)c1ccccc1-c1ccc(Cn2c(CCCC)nc(C(C)(C)O)c2C(=O)O)cc1	158 to 159
COc1c(Br)cc([N+](=O)[O-])cc1-c1c2ccccc2c(Br)c2sc(C)c(C)c12	204 to 205
CN1C(=O)CC[C@]2(C)c3ccc(SC(c4ccccc4)c4ccccc4)cc3CC[C@@H]12	102 to 104
C[C@H](NC(=O)OCc1ccccc1)C(=O)N1CCC[C@H]1C(=O)NC1CCCCCC1	110 to 113
Cc1cccc(NC(=O)NCC(=O)N(c2ccccc2)C(C(=O)OC(C)(C)C)c2ccccc2Cl)c1 (racemic)	181
O=C(O)Cc1ccc2oc(-c3ccc(Cl)cc3)nc2c1	241 to 242
CCOC(=O)N1CCN(CCNc2ncnc3c2sc2nc(N(C)C)c4c(c23)CC(C)(C)CC4)CC1	138 to 140
COc1ccccc1N1CCN(CCn2c(=O)c3sccc3n(C(C)=O)c2=O)CC1	156 to 158
CCC(=O)Nc1ccc(-c2ccnc3c(C(=O)c4ccccc4)cnn23)cc1	211 to 213
CC(=O)Nc1nc(CCc2ccc(CCNC(=N)N)s2)cs1	122 to 123
O=C(c1ccc(F)cc1)c1nc[nH]n1	225 to 230
COc1cc(N2CCCN(C3CCN(C)CC3)CC2)ccc1Nc1ncc2ccc(-c3ccccc3N(C)S(C)(=O)=O)n2n1	90 to 97
CC(=O)Oc1ccc(-c2c(C)c3cccc(OC(C)=O)c3oc2=O)c(OC(C)=O)c1	119 to 120
CN(C)CCc1cccc(N2C(=O)N(c3ccc(Cl)cc3Cl)Cc3cnc(Nc4ccccc4)nc32)c1	101 to 105

SMILES	melting point [°C]
O=S1(=O)CCC(=S)Nc2ccc(Cl)cc2C1c1ccccc1F (stereo unspecified)	226
NC1CCCN(C(=O)c2ccc(NC(=O)c3ccccc3Cl)cc2)c2ccccc21 (stereo unspecified)	176 to 178
O=CN[C@H]1CC[C@H](CCN2CCN(c3nccc4c3CCO4)CC2)CC1	170
Cc1sc(N)c(C(=O)c2ccccn2)c1C	136 to 139
CNC1=Nc2ccc(Cl)cc2C(c2ccccc2F)=NC1	204 to 206
CCCC1=NN(c2ccc(S(=O)(=O)NC(C)(C)C)cc2)C(=O)C1=CNc1ccccc1OCC	254
O=C(O)COc1cc2c(c(Cl)c1Cl)C(O)C1(CCCC1)C2 (stereo unspecified)	135
O=Cc1c(Cl)c(Cl)c(Cl)c(Cl)c1Cl	201 to 203
Cn1cncc1Cn1nnnc1-c1cccc(Cl)c1Cl	166 to 168
COc1nc(C)c2c(c1C#N)CCCC2	116
COC(=O)c1ccc2oc3c(c(=O)c2c1)CCCC3=Cc1ccccc1	168 to 170
O=C1CN(c2ccc(Cl)cc2)C(=O)N1C(=O)c1c(Cl)cccc1Cl	176 to 180
CNS(=O)(=O)c1ccc(Nc2nc(-c3ccccc3)cc(N3CCC(O)CC3)n2)cc1	280 to 285
CC(=O)c1ccc2c(c1)C(c1ccccc1F)=NC(C)(C)C(=O)N2C	68
O=S1CCN(c2nc(Cl)nc3c(Cl)ncnc23)CC1	195 to 198
CC(C(N)=NO)N(CCN(C(C)C(N)=NO)C(C)C(N)=NO)C(C)C(N)=NO (stereo unspecified)	191 to 192
Cc1ccc2c3c(ccc2n1)OC[C@H](CN1CCN(c2cccc(C)c2C)CC1)O3	112 to 113
Cc1cc(=O)on1C(=O)c1ccc(Cl)cc1Cl	137 to 139
CC(=O)NC[C@H]1CN(c2ccc(N3CCC(=C(C#N)CCO)CC3)c(F)c2)C(=O)O1	192 to 194
CC(C)C(NC(=O)Cn1cc(Cc2ccc(F)cc2)cc(NC(=O)OCc2ccccc2)c1=O)C(=O)C(F)(F)F (stereo unspecified)	66 to 72
O=C1CC[C@H](N2C(=O)c3cccc(CNC(=O)C4CC4)c3C2=O)C(=O)N1	219 to 221
CC(=O)Oc1ccc(-c2cnc(N)c(Cc3ccccc3)n2)cc1	184 to 186
CCCCc1cn(-c2c(C)cc(C(C)(C)C)cc2C)c(=O)n1Cc1ccc(-c2ccccc2-c2nnn[nH]2)cc1	134 to 135
O=C1NCCC[C@@H]1NS(=O)(=O)c1cc(F)cc(F)c1	170 to 174
Cc1ccc(Nc2cccc(O)c2)cc1	86 to 88
Cn1nc(C(F)F)cc1O	133

Now from value to compound:

melting point [°C]	SMILES
90 to 93	CC1(C)CC(=O)C2(CCC(=O)O)CC1C2
102 to 104	COc1ccc(CC(=O)O)c(C)c1OC
151	N[C@@H]1CN2C(=O)N(c3cc(Cl)nc(Cl)c3)C(=O)[C@@]2(Cc2ccc(OC(F)(F)F)cc2)C1
79 to 81	NS(=O)(=O)c1cc(C(=O)OC[C@@H]2CCCN2N=O)c(NCc2ccco2)cc1Cl
197 to 199	Cn1cc(-c2cccc(C(F)(F)F)c2)c(=O)c(-c2ccccc2Br)c1
108 to 110	CC(C(=O)O)c1ccc2c(=O)c3ccccc3ccc2c1 (stereo unspecified)
137 to 139	CC(C)(C)c1ccccc1N1CCN(C(=O)c2ccc(F)cc2)CC1
108 to 110	CNC(=O)c1ccc(F)c(Cl)c1
230 to 231	COc1ccc(C(=O)Nc2ccc(C(=O)O)cc2)cc1C1(C)CCCCC1
170 to 172	O=C(c1ccc(-c2ccccn2)cc1)N1Cc2cccn2Cc2ccccc21
153 to 154	COc1c(F)c(F)c(-c2c3ccccc3c(-c3ccccc3)c3ccccc23)c(F)c1F
203	O=[N+]([O-])c1cc2cc(Br)ccc2nc1Cl
136	CCOC(=O)c1ccc(Cn2c(NC3CCN(C(=O)OCC)CC3)nc3ccccc32)o1
140	CCOC(=O)Cn1c(C(=O)OCC)c2c(c1C(=O)OCC)OCCCO2
202	O=C(O)Cc1cc(C=Cc2ccccc2)ccc1O
90	CS(=O)c1ncc(Br)cn1 (stereo unspecified)
130 to 132	CC(C)c1cccc(Nc2nc(Cl)nc(NCc3ccccn3)n2)c1
153	CN(C)CC(=O)Nc1cccc2nc(N[C@@H]3CCc4ccccc43)ccc12
159 to 160	ClCc1ccc(OCCOc2ccccc2)cc1
148	c1ccc(COc2ccc3[nH]cc(Cc4cccnc4)c3c2)cc1
191 to 194	C[C@H](CO)Nc1nc(SCc2ccno2)nc2[nH]c(=O)cnc12
166 to 167	CCCN1C(=O)c2cscc2Nc2ccccc21
279	CNN(NC)C(=O)Nc1cccc2c1C(=O)c1c-2n[nH]c1-c1cccs1
247 to 249	CNC(=O)c1cc2c(nc(C)n2C)c(O)c1CC[C@@H](O)c1ccccc1
74	C(=C1CCN(C(c2ccccc2)(c2ccccc2)c2ccccc2)CC1)c1ccc(C2=NCCO2)cc1

melting point [°C]	SMILES
205 to 215	O=C(O)c1cn(-c2ccc(F)cc2)c(C=Cc2ccncc2)cc1=O
95 to 96	C[C@@H](NC(=O)OC(C)(C)C)c1nc2c(Cl)cccc2s1
130 to 133	Clc1ccc(Cn2cnc3c(Cl)ncnc32)cc1Cl
160 to 162	CCCOc1cc(Cl)ccc1-c1nc2ncn(C)c(=S)n2n1
105 to 109	CC1(C)CC(=O)N(CC(CS(=O)(=O)c2ccc(-c3ccc(F)cc3)cc2)N(O)C=O)C(=O)C1 (stereo unspecified)
136 to 139	CC(C)c1cc(C(=O)CON2C(=O)c3ccccc3C2=O)cc(C(C)C)c1O
157 to 158	O=c1nc(-c2ccnc(C3CNCCO3)c2)sc2ccccc12 (stereo unspecified)
144 to 146	CCOC(=O)C1=C(C)NC(=S)N(C(=O)OCC)C1c1cccc2nonc12 (stereo unspecified)
100 to 101	CC1=NS(=O)(=O)N(Cc2ccncc2)C=C1
122 to 124	O=C(NCc1ncc(C(F)(F)F)cc1Cl)c1c(Cl)ccnc1Cl
122 to 124	COC(=O)c1cc2ccc(OC)cc2cc1/N=C/N(C)C
153 to 155	CCCCc1ncc(C(=O)OC)c(=O)[nH]1
300 to 301	CCOC(=O)c1csc(Nc2ccc(Br)cn2)n1
63 to 64	CCOC(=O)[C@H](CSCCc1ccccc1)NC(=O)C(CSC(C)=O)Cc1ccccc1 (stereo partly specified)
59 to 60	C=CCN(c1ccc(OC)cc1)S(=O)(=O)c1c(F)c(F)c(F)c(F)c1F
142 to 144	COC(=O)c1cc(C(=O)c2ccc(OC)c(C(=O)OC)c2)ccc1OC
134 to 147	CCOC(=O)COc1cc(C)nc2c(OCc3c(Cl)ccc(N(C)C(=O)CNC(=O)C=Cc4ccc(C(=O)NC)cc4)c3Cl)cccc12
190 to 192	Cc1cc(C(=O)N(C)C)ccc1-c1ccc(C(=O)O)cc1
227 to 229	Cc1nnc2nc(-c3ccccc3F)cnn12
55 to 56	CCOc1ccc(NC(=O)OC(C)(C)C)c(C)c1
172 to 175	Cc1cc(C(=O)N[C@@H]2CCc3cccc(N4CCN(C)CC4)c3C2)ccc1N1CCOCC1
98 to 99	COC(=O)C(C)(C)c1cn2nc(Cl)c(C)cc2n1
300	NS(=O)(=O)c1ccc(-c2c(-c3ccccc3)noc2C(=O)O)cc1
98 to 101	OC(CCN1CCC(c2ccccc2)CC1)c1ccc(Cc2ccc(Cl)cc2)cc1 (stereo unspecified)
